The structures appear in SMILES notation.

The first test concerns ovariectomized mice administered with 17β-estradiol. The test can be described thus: Anti-estrogenic activity (oral administration): inhibition of estradiol-induced increase in uterine weight in ovariectomized mice. The following applies: 10 mg/kg p.o., once a day for 3 days, ovariectomized ICR mice given 17β-estradiol-benzoate 0.1 μg/mouse s.c. for 3 days. It is filed as in vivo. Here is the method: Test compounds were assayed for their oral anti-estrogenic activity in the following manner. In this experiment, the compounds prepared in Examples 5, 12, 14-33, 37 and 38 were used as test compounds. As control compounds, those having the same structures in the parent scaffold as the test compounds were used, that is, ZM189154 for Examples 5 and 27-33 and ICI182780 for Examples 12, 14-26, 37 and 38.
In this experiment, each of the test and control compounds was suspended in 5% arabic gum solution and orally administered for 3 days on a once-a-day basis. After 24 hours from the last administration, the test animals were sacrificed and the uteri were removed and weighed.
With `C[C@]1(c2ccc(O)cc2)CCc2cc(O)ccc2[C@H]1CCCCCCCCC[S+]([O-])CCCC(F)(F)C(F)(F)F` (some centres unmarked) [ZM189154, reference compound], the “Inhibition (%)” value is 42%.

Still in this test, the particulars now being: 10 mg/kg p.o., once a day for 3 days, ovariectomized ICR mice given 17β-estradiol-benzoate 0.1 μg/mouse s.c. for 3 days, 10 mg/kg.
Take `C[C@]12C[C@H](CCCCCCCCC(CCCCCC(F)(F)C(F)(F)F)C(=O)O)[C@@H]3c4ccc(O)cc4CC[C@H]3[C@@H]1CC[C@@H]2O` (stereo partly drawn) [Example 26, 10-(3,17β-dihydroxyestra-1,3,5(10)-trien-11β-yl)-2-(6,6,7,7,7-pentafluoroheptyl)decanoic Acid]: the “Inhibition (%)” value was 96%.

Still in this test, the particulars now being: po, 24 h, 10 mg/kg p.o., once a day for 3 days, ovariectomized ICR mice given 17β-estradiol-benzoate 0.1 μg/mouse s.c. for 3 days.
For orientation: inhibition in vivo means the drop in the measured response relative to a control, in per cent. On to `C[C@]12CC[C@@H]3c4ccc(O)cc4C[C@@H](CCCCCCCCC[S+]([O-])CCCC(F)(F)C(F)(F)F)[C@H]3[C@@H]1CC[C@@H]2O` (some centres unmarked) [ICI182780, reference compound], for which the inhibition in vivo at 10 mg/kg stood at 51%.

For `C[C@]12C[C@H](CCCCCCCCCC(CCCC(F)(F)C(F)(F)F)C(=O)O)[C@@H]3c4ccc(O)cc4CC[C@H]3[C@@H]1CC[C@@H]2O` (stereo partly drawn) [Example 24, 11-(3,17β-dihydroxyestra-1,3,5(10)-trien-11β-yl)-2-(4,4,5,5,5-pentafluoropentyl)undecanoic Acid], the inhibition in vivo at 10 mg/kg turned out to be 98%.

Consider `Cc1cc(O)ccc1-c1ccc2cc(O)ccc2c1CCCCCCCCCCC(CCCC(F)(F)C(F)(F)F)C(=O)O` (centres unmarked) [Example 29, 12-[6-hydroxy-2-(4-hydroxy-2-methylphenyl)-naphth-1-yl]-2-(4,4,5,5,5-pentafluoropentyl)dodecanoic Acid], for which the inhibition in vivo at 10 mg/kg came to 80%.

For the compound `C[C@]12CC[C@@H]3c4ccc(O)cc4C[C@@H](CCCCCCCC[C@H](CCCC(F)(F)C(F)(F)C(F)(F)C(F)(F)F)C(=O)O)[C@H]3[C@@H]1CC[C@@H]2O` [Example 37, (2R)-10-(3,17β-dihydroxyestra-1,3,5(10)-trien-7α-yl)-2-(4,4,5,5,6,6,7,7,7-nonafluoroheptyl)decanoic Acid], the inhibition in vivo at 10 mg/kg came out at 101%.

On to `C[C@]12CC[C@@H]3c4ccc(O)cc4C[C@@H](CCCCCCCCCC(CCCC(F)(F)C(F)(F)C(F)(F)C(F)(F)F)C(=O)O)[C@H]3[C@@H]1CC[C@@H]2O` (stereo partly drawn) [Example 18, 11-[3,17β-dihydroxyestra-1,3,5(10)-trien-7α-yl]-2-(4,4,5,5,6,6,7,7,7-nonafluoroheptyl)undecanoic Acid], for which the inhibition in vivo at 10 mg/kg amounted to 85%.

With `CCc1cc(O)ccc1-c1ccc2cc(O)ccc2c1CCCCCCCCCCC(CCCC(F)(F)C(F)(F)F)C(=O)O` (centres unmarked) [Example 30, 12-[2-(2-ethyl-4-hydroxyphenyl)-6-hydroxynaphth-1-yl]-2-(4,4,5,5,5-pentafluoropentyl)dodecanoic Acid], the inhibition in vivo at 10 mg/kg is 58%.

Regarding `C[C@]12C[C@H](CCCCCCCCC(CCCC(F)(F)C(F)(F)C(F)(F)C(F)(F)F)C(=O)O)[C@@H]3c4ccc(O)cc4CC[C@H]3[C@@H]1CC[C@@H]2O` (stereo partly drawn) [Example 22, 10-(3,17β-dihydroxyestra-1,3,5(10)-trien-11β-yl)-2-(4,4,5,5,6,6,7,7,7-nonafluoroheptyl)decanoic Acid], the inhibition in vivo at 10 mg/kg was determined as 98%.

As to `C[C@]12C[C@H](CCCCCCCCC(CCC(F)(F)C(F)(F)C(F)(F)C(F)(F)F)C(=O)O)[C@@H]3c4ccc(O)cc4CC[C@H]3[C@@H]1CC[C@@H]2O` (stereo partly drawn) [Example 23, 10-(3,17β-dihydroxyestra-1,3,5(10)-trien-11β-yl)-2-(3,3,4,4,5,5,6,6,6-nonafluorohexyl)decanoic Acid], the inhibition in vivo at 10 mg/kg worked out at 98%.

As for `C[C@]12CC[C@@H]3c4ccc(O)cc4C[C@@H](CCCCCCCCCC(CCC(F)(F)C(F)(F)C(F)(F)C(F)(F)F)C(=O)O)[C@H]3[C@@H]1CC[C@@H]2O` (stereo partly drawn) [Example 19, 11-[3,17β-dihydroxyestra-1,3,5(10)-trien-7α-yl]-2-(3,3,4,4,5,5,6,6,6-nonafluorohexyl)undecanoic Acid], the inhibition in vivo at 10 mg/kg worked out at 92%.

In the case of `C[C@]12CC[C@@H]3c4ccc(O)cc4C[C@@H](CCCCCCCCC(CCC(F)(F)C(F)(F)C(F)(F)C(F)(F)F)C(=O)O)[C@H]3[C@@H]1CC[C@@H]2O` (stereo partly drawn) [Example 16, 10-[3,17β-dihydroxyestra-1,3,5(10)-trien-7α-yl]-2-(3,3,4,4,5,5,6,6,6-nonafluorohexyl)decanoic Acid], the inhibition in vivo at 10 mg/kg was 98%.

With `C[C@]12CC[C@@H]3c4ccc(O)cc4C[C@@H](CCCCCCCCC(CCCCCC(F)(F)C(F)(F)F)C(=O)O)[C@H]3[C@@H]1CC[C@@H]2O` (stereo partly drawn) [Example 17, 10-[3,17β-dihydroxyestra-1,3,5(10)-trien-7α-yl]-2-(6,6,7,7,7-pentafluoroheptyl)decanoic Acid], the inhibition in vivo at 10 mg/kg is 94%.

Take `O=C(O)C(CCCCCCCCCCc1c(-c2ccc(O)cc2)ccc2cc(O)ccc12)CCCC(F)(F)C(F)(F)F` (centres unmarked) [Example 27, 12-[6-hydroxy-2-(4-hydroxyphenyl)naphth-1-yl]-2-(4,4,5,5,5-pentafluoropentyl)dodecanoic Acid]: the inhibition in vivo at 10 mg/kg is 64%.

With `C[C@]12C[C@H](CCCCCCCCCC(CCC(F)(F)C(F)(F)C(F)(F)C(F)(F)F)C(=O)O)[C@@H]3c4ccc(O)cc4CC[C@H]3[C@@H]1CC[C@@H]2O` (stereo partly drawn) [Example 20, 11-(3,17β-dihydroxyestra-1,3,5(10)-trien-11β-yl)-2-(3,3,4,4,5,5,6,6,6-nonafluorohexyl)undecanoic Acid], the inhibition in vivo at 10 mg/kg worked out at 94%.

On to `C[C@]12CC[C@@H]3c4ccc(O)cc4C[C@@H](CCCCCCCCC(CCCC(F)(F)C(F)(F)F)C(=O)O)[C@H]3[C@@H]1CC[C@@H]2O` (stereo partly drawn) [Example 14, 10-[3,17β-dihydroxyestra-1,3,5(10)-trien-7α-yl]-2-(4,4,5,5,5-pentafluoropentyl)decanoic Acid], for which the inhibition in vivo at 10 mg/kg came out at 87%.

`O=C(O)C(CCCCCCCCCCc1c(-c2ccc(O)cc2C(F)(F)F)ccc2cc(O)ccc12)CCCC(F)(F)C(F)(F)F` (centres unmarked) [Example 32, 12-[6-hydroxy-2-(4-hydroxy-2-trifluoromethylphenyl)naphth-1-yl]-2-(4,4,5,5,5-pentafluoropentyl)-dodecanoic Acid]: the inhibition in vivo at 10 mg/kg is 73%.

As to `O=C(O)C(CCCCCCCCCc1c(-c2ccc(O)cc2)ccc2cc(O)ccc12)CCC(F)(F)C(F)(F)C(F)(F)C(F)(F)F` (centres unmarked) [Example 28, 11-[6-hydroxy-2-(4-hydroxyphenyl)naphth-1-yl]-2-(3,3,4,4,5,5,6,6,6-nonafluorohexyl)undecanoic Acid], the inhibition in vivo at 10 mg/kg came out at 68%.

As to `O=C(O)C(CCCCCCCCCCc1c(-c2ccc(O)cc2F)ccc2cc(O)ccc12)CCCC(F)(F)C(F)(F)F` (centres unmarked) [Example 31, 12-[2-(2-fluoro-4-hydroxyphenyl)-6-hydroxynaphth-1-yl]-2-(4,4,5,5,5-pentafluoropentyl)dodecanoic Acid], the inhibition in vivo at 10 mg/kg came to 75%.

As for `C[C@]1(c2ccc(O)cc2)CCc2cc(O)ccc2C1CCCCCCCCC(CCCC(F)(F)C(F)(F)F)C(=O)O` (mixture of isomers) [Example 5, 10-[(1RS, 2RS)-6-hydroxy-2-(4-hydroxyphenyl)-2-methyl-1,2,3,4-tetrahydro-1-naphthyl]-2-(4,4,5,5,5-pentafluoropentyl)decanoic Acid], the inhibition in vivo at 10 mg/kg was found to be 67%.

Regarding `C[C@]12CC[C@@H]3c4ccc(O)cc4C[C@@H](CCCCCCCC[C@@H](CCCC(F)(F)C(F)(F)C(F)(F)C(F)(F)F)C(=O)O)[C@H]3[C@@H]1CC[C@@H]2O` [Example 38, (2S)-10-(3,17β-dihydroxyestra-1,3,5(10)-trien-7α-yl)-2-(4,4,5,5,6,6,7,7,7-nonafluoroheptyl)decanoic Acid], the inhibition in vivo at 10 mg/kg turned out to be 100%.

Consider `C[C@]12C[C@H](CCCCCCCCC(CCCC(F)(F)C(F)(F)F)C(=O)O)[C@@H]3c4ccc(O)cc4CC[C@H]3[C@@H]1CC[C@@H]2O` (stereo partly drawn) [Example 21, 10-(3,17β-dihydroxyestra-1,3,5(10)-trien-11β-yl)-2-(4,4,5,5,5-pentafluoropentyl)decanoic Acid], for which the inhibition in vivo at 10 mg/kg was found to be 99%.

On to `C[C@]12C[C@H](CCCCCCCCC(CCCCCC(F)(F)C(F)(F)F)C(=O)O)[C@@H]3c4ccc(O)cc4CC[C@H]3[C@@H]1CC[C@@H]2O` (stereo partly drawn) [Example 12, 10-[3,17β-dihydroxyestra-1,3,5(10)-trien-11β-yl]-2-(6,6,7,7,7-pentafluoroheptyl)decanoic Acid], for which the inhibition in vivo at 10 mg/kg turned out to be 97%.

As to `C[C@]12CC[C@@H]3c4ccc(O)cc4C[C@@H](CCCCCCCCC(CCCC(F)(F)C(F)(F)C(F)(F)C(F)(F)F)C(=O)O)[C@H]3[C@@H]1CC[C@@H]2O` (stereo partly drawn) [Example 15, 10-[3,17β-dihydroxyestra-1,3,5(10)-trien-7α-yl]-2-(4,4,5,5,6,6,7,7,7-nonafluoroheptyl)decanoic Acid], the inhibition in vivo at 10 mg/kg was determined as 96%.

Take `C[C@]12C[C@H](CCCCCCCCCC(CCCC(F)(F)C(F)(F)C(F)(F)C(F)(F)F)C(=O)O)[C@@H]3c4ccc(O)cc4CC[C@H]3[C@@H]1CC[C@@H]2O` (stereo partly drawn) [Example 25, 11-(3,17β-dihydroxyestra-1,3,5(10)-trien-11β-yl)-2-(4,4,5,5,6,6,7,7,7-nonafluoroheptyl)undecanoic Acid]: the inhibition in vivo at 10 mg/kg stood at 93%.

With `O=C(O)C(CCCCCCCCCCc1c(-c2ccc(O)c(F)c2)ccc2cc(O)ccc12)CCCC(F)(F)C(F)(F)F` (centres unmarked) [Example 33, 12-[2-(3-fluoro-4-hydroxyphenyl)-6-hydroxynaphth-1-yl]-2-(4,4,5,5,5-pentafluoropentyl)dodecanoic Acid], the inhibition in vivo at 10 mg/kg worked out at 64%.

Source of the values: patent US6737417B2, “Compounds with hydroxycarbonyl-halogenoalkyl side chain” (Chugai Seiyaku Kabushiki Kaisha, priority 1999, dated 2004).
